Target: T1, taspase1 (Homo sapiens, UniProt Q9H6P5)
T1 sequence (Q9H6P5 1-233 limits assumed): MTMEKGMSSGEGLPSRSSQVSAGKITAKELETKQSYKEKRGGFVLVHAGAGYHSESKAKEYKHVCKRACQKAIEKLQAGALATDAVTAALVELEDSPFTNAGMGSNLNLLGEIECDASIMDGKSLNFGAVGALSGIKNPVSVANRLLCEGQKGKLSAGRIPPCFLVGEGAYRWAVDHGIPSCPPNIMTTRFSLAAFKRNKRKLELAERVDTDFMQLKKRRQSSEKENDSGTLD
T1 sequence (Q9H6P5 234-420 limits assumed): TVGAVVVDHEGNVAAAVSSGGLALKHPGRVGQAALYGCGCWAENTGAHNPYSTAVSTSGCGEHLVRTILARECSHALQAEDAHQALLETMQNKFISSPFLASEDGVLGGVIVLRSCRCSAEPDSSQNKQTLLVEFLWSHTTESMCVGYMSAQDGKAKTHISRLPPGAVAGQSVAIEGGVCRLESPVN
Experiment: Inhibition rates after different pre-incubation times
Format: biochemical
Settings: different amounts of pre-incubation time

Ac-Ile-Ser-Gln-Leu-Asp-vs [yzm18]
time dependence of inhibition: inhibition was not time dependent
